The values that follow come from US12590062B2, “PD-1/PD-L1 inhibitors” (Gilead Sciences, Inc., priority 2017, dated 2026).

pEC50, pIC50: −log10 of the molar value. Bounds are passed on as bounds.

For experiment [1], the target named is T1, PD-1/PD-L1 interaction (Homo sapiens, UniProt Q9NZQ7).
T1 construct: expressed in transfected cells; host or cells: CHO cells (aAPC-PD-L1) co-cultured with Jurkat cells overexpressing PD-1 and an NFAT-luciferase reporter
Nature of the experiment: PD-1/PD-L1 NFAT reporter co-culture assay. Format: cell-based. Particulars: Jurkat PD-1 NFAT-luciferase cells co-cultured with aAPC-PD-L1 CHO cells, 6 hrs at 37° C.; read-out: EC50 NFAT Luciferase. The essentials:
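First, CHO cells displaying anti-CD3 antibody and PD-L1 were plated overnight. Next, compound-treated PD-1 Jurkat NFAT-luciferase reporter cells in 2% FBS RPMI were added for 6 h at 37 °C. Finally, ONE-Glo luminescence was read and EC50 values fitted with a four-parameter equation.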

The target of experiment [2] is PD-1/PD-L1 (Homo sapiens, UniProt Q9NZQ7). Description: PD-1/PD-L1 biochemical protein-protein interaction assay (ALPHA). The conditions noted are these: 0.3 nM His tagged PD-L1, 2.5 nM biotinylated Fc-PD-1, 60 minutes at 25° C., read-out: IC50 PD-L1-PD-1 Alpha IC50-mono PD-L1-fcP-D1. Format: binding. The essentials:
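His-PD-L1 ECD 0.3 nM + biotin-Fc-PD-1 2.5 nM (final), 25 mM Hepes pH 7.4, 150 mM NaCl, 3.4 mM EDTA; 60 min, 25° C; anti-His acceptor/streptavidin donor ALPHA beads; decreased signal = blocked binding; 4-parameter IC50.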

The target of experiment [3] is T2, PD-L1 (Homo sapiens, UniProt Q9NZQ7).
T2 construct: determine if they can specifically dimerize the extracellular domains of PD-L1
T2 sequence (Q9NZQ7 19-238 limits assumed): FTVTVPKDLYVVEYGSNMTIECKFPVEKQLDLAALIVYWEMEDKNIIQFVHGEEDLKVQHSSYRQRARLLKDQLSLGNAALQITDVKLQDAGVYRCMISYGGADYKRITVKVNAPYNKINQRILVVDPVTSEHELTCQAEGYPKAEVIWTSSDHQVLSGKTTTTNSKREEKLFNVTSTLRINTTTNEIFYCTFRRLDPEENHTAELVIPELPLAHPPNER
T2 sequence (Q9NZQ7 19-238 limits assumed): as above
Description: PD-L1/PD-L1 dimerization biochemical protein-protein interaction assay (ALPHA). Format: binding. Particulars: compound-induced PD-L1 dimerization, head prints '1 nM' (0.5 nM His-tagged PD-L1 and 0.5 nM FLAG-tagged PD-L1), read-out: AC50 PDL1 Dimer Alpha 1 nM. In a few lines: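 After 2 h at 25 °C with compound, His- and FLAG-tagged PD-L1 ECDs (each 0.5 nM final; 25 mM Hepes pH 7.4, 150 mM NaCl) were detected by sequential anti-His acceptor and anti-FLAG donor bead incubations. Dose-response curves fitted to four-parameter equation for AC50.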

T1 sequence (Q9NZQ7 19-290): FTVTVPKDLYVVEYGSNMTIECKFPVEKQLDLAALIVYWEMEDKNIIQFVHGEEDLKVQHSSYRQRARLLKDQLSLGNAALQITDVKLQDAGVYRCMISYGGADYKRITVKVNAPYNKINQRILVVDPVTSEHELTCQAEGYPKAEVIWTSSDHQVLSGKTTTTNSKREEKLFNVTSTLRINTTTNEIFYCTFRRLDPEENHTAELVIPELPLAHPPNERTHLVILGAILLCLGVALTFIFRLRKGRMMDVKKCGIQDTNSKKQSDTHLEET
PD-1/PD-L1, sequence (Q9NZQ7 19-238 limits assumed): as the sequence (Q9NZQ7 19-238 limits assumed) above

As to `Cc1c(COc2cc(OCc3cncc(C#N)c3)c(CN[C@@](C)(CO)C(=O)O)cc2Cl)cccc1-c1cccc(-c2ccc(CNCCc3c[nH]cn3)cc2)c1C` [Example 360, (S)-2-((4-((4″-(((2-(1H-imidazol-4-yl)ethyl)amino)methyl)-2,2′-dimethyl-[1,1′:3′,1″-terphenyl]-3-yl)methoxy)-5-chloro-2-((5-cyanopyridin-3-yl)methoxy)benzyl)amino)-3-hydroxy-2-methylpropanoic acid], in experiment [1], the pEC50 is 6.28. Moreover, in experiment [2], the pIC50 is 8.95. The AC50 in experiment [3] was found to be 224 nM.

Take `COc1nc(-c2cccc(-c3cccc4c3CC[C@@H]4Oc3nc(OC)c(CN4C[C@@H](C)[C@H](C(=O)O)C4)cc3Cl)c2Cl)ccc1CNC[C@@H]1CCC(=O)N1` [Example 765]: the pEC50 in experiment [1] was 7.96. Moreover, the pIC50 in experiment [2] is 10.19. The AC50 in experiment [3] is 13.1 nM.

`Cc1c(-c2ccc(CN3CC[C@@H](O)C3)cc2)cccc1-c1cccc(-c2ccc(CNC[C@@H](O)CC(=O)O)c(OC(F)(F)F)c2)c1C` [Example 325, (S)-3-hydroxy-4-(((4′″-(((R)-3-hydroxypyrrolidin-1-yl)methyl)-2′,2″-dimethyl-3-(trifluoromethoxy)-[1,1′:3′,1″:3″,1′″-quaterphenyl]-4-yl)methyl)amino)butanoic acid]: the pEC50 in experiment [1] was 5.59. The pIC50 in experiment [2] was 8.86. In experiment [3], the AC50 was 633 nM.

Turning to `COc1nc(-c2cccc(-c3cccc4c3CC[C@@H]4Oc3ccc(CN[C@@](C)(CO)C(=O)O)c(OCc4cncc(C#N)c4)n3)c2Cl)ccc1C1=NCCN1` [Example 746], the pEC50 in experiment [1] was 6.84. For the same compound, in experiment [2], the pIC50 is 10.19. Moreover, in experiment [3], the AC50 turned out to be 104 nM.

On to `COc1nc(O[C@H]2CCc3c(-c4cccc(-c5cnc(CN6CC(C)(O)C6)c(OC)n5)c4Cl)cccc32)c(Cl)cc1CN1CC[C@H](C(=O)O)C1` [Example 705], for which the pEC50 in experiment [1] is 7.70. In addition, the pIC50 in experiment [2] is 10.19. Moreover, in experiment [3], the AC50 came to 60.6 nM.

`COc1nc(O[C@H]2CCc3c(-c4cccc(-c5ccc6c(c5)C[C@@H](N)C6)c4Cl)cccc32)ccc1CNC[C@@H]1CCC(=O)N1` [Example 793]: the pEC50 in experiment [1] was 5.74. Besides, the pIC50 in experiment [2] is 8.76. Moreover, in experiment [3], the AC50 turned out to be 187 nM.

In the case of `Cc1c(COc2cc(OCc3cncc(C#N)c3)c(CN3CCCC[C@H]3C(=O)O)cc2Cl)cccc1-c1cccc(-c2ccc(OCCNCCO)cc2)c1C` [Example 344, (S)-1-(5-chloro-2-((5-cyanopyridin-3-yl)methoxy)-4-((4″-(2-((2-hydroxyethyl)amino)ethoxy)-2,2′-dimethyl-[1,1′:3′,1″-terphenyl]-3-yl)methoxy)benzyl)piperidine-2-carboxylic acid], in experiment [1], the pEC50 was 6.32. Besides, the pIC50 in experiment [2] was 10.19. For the same compound, the half-maximal activity concentration (AC50) in experiment [3] came out at 55 nM.

Take `Cc1c(COc2cc(OCc3cncc(C#N)c3)c(CNCCO)cc2Cl)cccc1-c1cccc(COc2cc(OCc3cncc(C#N)c3)c(CNCCO)cc2Cl)c1Br` [Example 480]: the pEC50 in experiment [1] was 6.83. The pIC50 in experiment [2] was 8.95. Besides, the AC50 in experiment [3] came out at 114 nM.

As for `COc1nc(O[C@H]2CCc3c(-c4cccc(-c5cc(C)c(CNC[C@@H]6CCC(=O)N6)c(OC)n5)c4Cl)cccc32)c(Cl)cc1CN1CC[C@@H](C(=O)O)C1` [Example 490], the pEC50 in experiment [1] was 7.72. In experiment [2], the pIC50 is 10.19. Moreover, in experiment [3], the AC50 came to 14.1 nM.

For the compound `COc1nc(O[C@H]2CCc3c(-c4cccc(-c5cnc(CNC[C@@H]6CCC(=O)N6)c(OC)n5)c4Cl)cccc32)c(Cl)cc1CNC[C@@H]1CCC(=O)N1` [Example 652], the pEC50 in experiment [1] is 7.23. Moreover, the negative-log IC50 (pIC50) in experiment [2] was 9.80. In addition, in experiment [3], the AC50 was 140 nM.

Consider `Cc1c(COc2cc(OCc3cncc(C#N)c3)c(CNCCO)cc2Cl)cccc1-c1cccc(-c2ccc3c(c2)CCC3N2CC[C@H](O)C2)c1C` (stereo partly drawn) [Example 373, 5-((4-chloro-2-(((2-hydroxyethyl)amino)methyl)-5-((3′-(1-((S)-3-hydroxypyrrolidin-1-yl)-2,3-dihydro-1H-inden-5-yl)-2,2′-dimethyl-[1,1′-biphenyl]-3-yl)methoxy)phenoxy)methyl)nicotinonitrile], for which the pEC50 in experiment [1] is 6.47. For the same compound, the pIC50 in experiment [2] was 8.59. In addition, the AC50 in experiment [3] worked out at 168 nM.

For `N#Cc1cc(C#N)cc(COc2nc(OCc3cccc(-c4cccc(-c5ccc(OCCN6CC7(CCC(=O)N7)C6)cc5)c4Cl)c3Cl)c(Cl)cc2CNC[C@@H](O)CC(=O)O)c1` [Example 565], in experiment [1], the pEC50 is 6.95. Besides, the pIC50 in experiment [2] is 9.59. For the same compound, in experiment [3], the AC50 was 73.4 nM.

For `Cc1c(COc2cc(OCc3cncc(C#N)c3)c(CNC[C@@H](O)CC(=O)O)cc2Cl)cccc1-c1cccc(-c2ccc3c(CNC[C@H]4CCC(=O)N4)ccnc3c2)c1C` [Example 437], the pEC50 in experiment [1] is 6.32. The pIC50 in experiment [2] is 8.79. The AC50 in experiment [3] was found to be 477 nM.

Consider `C[C@@](CO)(NCc1cc(Cl)c(O[C@H]2CCc3c(-c4cccc(-c5ccc6c(c5)C[C@H](N)C6)c4Cl)cccc32)nc1OCc1cncc(C#N)c1)C(=O)O` [Example 695], for which the pEC50 in experiment [1] is 7.59. Also, the pIC50 in experiment [2] was 10.19. The AC50 in experiment [3] stood at 21.6 nM.

Consider `COc1cc(-c2cccc(-c3cccc(COc4cc(OCc5cncc(C#N)c5)c(CN[C@@](C)(CO)C(=O)O)cc4Cl)c3C)c2C)ccc1CN` [Example 506], for which the pEC50 in experiment [1] is 6.69. Besides, the negative-log IC50 (pIC50) in experiment [2] is 9.62. In addition, the AC50 in experiment [3] is 172 nM.

Consider `O=C1CC[C@@H](CNCc2ccc(-c3cccc(-c4cccc(-c5ccc(CNC[C@@H]6CCC(=O)N6)c(N6CCOCC6)c5)c4Cl)c3Cl)cc2N2CCOCC2)N1` [Example 626], for which, in experiment [1], the pEC50 was at most 4.30. In experiment [2], the negative-log IC50 (pIC50) is 8.51. Moreover, the AC50 in experiment [3] was at least 10000 nM.

On to `COc1cc(-c2cccc(-c3cccc(COc4cc(OCc5cncc(C#N)c5)c(CN[C@@](C)(CO)C(=O)O)cc4Cl)c3C)c2C)ccc1CNCC1CCC(=O)N1` (stereo partly drawn) [Example 508], for which the negative logarithm of the EC50 (pEC50) in experiment [1] was 6.81. For the same compound, the negative logarithm of the IC50 (pIC50) in experiment [2] was 10.08. In experiment [3], the AC50 came out at 78 nM.

Regarding `Cc1c(COc2cc(OCc3cncc(C#N)c3)c(CNC[C@@H](O)CC(=O)O)cc2Cl)cccc1-c1cccc(-c2ccc3c(c2)CC(N2CC(C)(O)C2)C3)c1C` (stereo partly drawn) [Example 442], the pEC50 in experiment [1] was 6.03. Also, the pIC50 in experiment [2] was 9.16. The AC50 in experiment [3] came out at 328 nM.

In the case of `OCCNCc1cc(Cl)c2nc(-c3cccc(-c4cccc(-c5nc6c(Cl)cc(CNCCO)cn6n5)c4Cl)c3Cl)nn2c1` [Example 635], the pEC50 in experiment [1] was at most 4.30. In addition, the pIC50 in experiment [2] is 10.00. For the same compound, in experiment [3], the AC50 amounted to 340 nM.

For `COc1nc(-c2cccc(-c3cccc(-c4ccc5c(CNC[C@@H]6CCC(=O)N6)cc(=O)n(C)c5c4)c3Cl)c2Cl)ccc1CNC[C@@H]1CCC(=O)N1` [Example 603], in experiment [1], the negative logarithm of the EC50 (pEC50) was 6.80. In experiment [2], the pIC50 was 9.69. Moreover, the AC50 in experiment [3] was determined as 235 nM.

As to `C[C@@](CO)(NCc1cc(Cl)c(O[C@H]2CCc3c(-c4cccc5c4CC[C@@H]5Oc4nc(OCc5cncc(S(C)(=O)=O)c5)c(CNCCO)cc4Cl)cccc32)nc1OCc1cncc(S(C)(=O)=O)c1)C(=O)O` [Example 690], in experiment [1], the negative logarithm of the EC50 (pEC50) was 6.54. The pIC50 in experiment [2] is 9.55. Besides, the AC50 in experiment [3] turned out to be 80.8 nM.

In the case of `COc1nc(O[C@H]2CCc3c(-c4cccc(-c5ccc(CNC[C@@H]6CCC(=O)N6)cc5)c4Cl)cccc32)c(Cl)cc1CN1CC(O)C1` [Example 720], the pEC50 in experiment [1] is 6.25. Besides, the pIC50 in experiment [2] was 9.58. The AC50 in experiment [3] was 94.9 nM.

On to `COc1nc(-c2cccc(-c3cccc(-c4ccc5c(c4)[C@H](N)CC5)c3Cl)c2Cl)ccc1C1=NCCN1` [Example 623], for which the pEC50 in experiment [1] was at most 4.30. Moreover, the pIC50 in experiment [2] was 8.28. In addition, in experiment [3], the AC50 is at least 10000 nM.

In the case of `COc1nc(-c2cccc(-c3cccc(COc4nc(OCc5cncc(C#N)c5)c(CNCCO)cc4Br)c3Cl)c2Cl)ccc1C1=NCCN1` [Example 555], the pEC50 in experiment [1] was 7.08. In addition, the pIC50 in experiment [2] was 9.40. For the same compound, in experiment [3], the AC50 is 23.1 nM.

As for `Cc1c(COc2cc(OCc3cncc(C#N)c3)c(CN[C@](C)(CO)C(=O)O)cc2Cl)cccc1-c1cccc(-c2ccc(OC3CN4CCC3CC4)cc2)c1C` (stereo partly drawn) [Example 302, (2R)-2-((5-chloro-2-((5-cyanopyridin-3-yl)methoxy)-4-((2,2′-dimethyl-4″-(quinuclidin-3-yloxy)-[1,1′:3′,1″-terphenyl]-3-yl)methoxy)benzyl)amino)-3-hydroxy-2-methylpropanoic acid], the negative logarithm of the EC50 (pEC50) in experiment [1] is 6.55. Also, the pIC50 in experiment [2] is 9.46. Further, the AC50 in experiment [3] stood at 76.2 nM.

As for `Cc1c(COc2cc(OCc3cncc(C#N)c3)c(CN(C)C)cc2Cl)cccc1-c1cccc(-c2ccc(CN(C)C)nc2)c1C` [Example 382, 5-((4-chloro-2-((dimethylamino)methyl)-5-((3′-(6-((dimethylamino)methyl)pyridin-3-yl)-2,2′-dimethyl-[1,1′-biphenyl]-3-yl)methoxy)phenoxy)methyl)nicotinonitrile], the pEC50 in experiment [1] was 5.91. Further, the pIC50 in experiment [2] is 9.52. In addition, in experiment [3], the AC50 was 334 nM.
